Laboratory results from patent publication US20240101602A1, “ANTIMICROBIAL PEPTIDES AND METHOD OF PREVENTING OR TREATING INFECTION BY USING THE SAME” (priority 2020, published 2024).

Legend:
[1] = system: Staphylococcus aureus BCRC 10777
[2] = system: Erwinia chrysanthemi; type: cell-based
How it was run: (§1)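 Bacteria were grown 4–6 h, set to OD600=0.08 in rich or minimal medium, then diluted 100-fold. This inoculum was mixed 1:1 with 2-fold serial peptide dilutions and incubated static at optimal temperature. MIC was read from growth and MBC taken as the lowest concentration giving no colonies.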

[3] = system: Pectobacterium carotovorum subsp. carotovorum; type: cell-based
How it was run: as §1

[4] = system: Staphylococcus epidermidis ATCC 14990
[5] = system: red blood cells; type: cell-based, rat
Protocol: Further, the hemolytic activity of the antimicrobial peptides was tested. EDTA-treated rat whole blood was centrifuged at 840×g for 3 minutes at 4° C. to separate blood cells and plasma. The plasma was removed, and the blood cells were washed three times with PBS having the same volume as the original blood volume by gently turning the centrifuge tube upside down. After washing, ten microliters of blood cells were diluted in PBS 2000 times to count the cells. Finally, red blood cells were diluted to 5×10^8 cells/mL in PBS. Peptides were dissolved in water and filtered through a 0.2-μm filter to make a stock solution. The peptide concentration was quantitated by UV280. The peptide solution was diluted in PBS to different concentrations (5 times of tested concentration). Twenty microliters of peptide in PBS were mixed with 80 μL of red blood cell solution in a 96-well plate (V-bottom). […] The concentration of heme contained in each well was measured by UV405 using Infinite M1000 pro (Tecan). The hemolytic activity was calculated using the following formula: Hemolytic activity=[(F−F0)/(Ft−F0)]×100% • F is UV405 of the peptide-treated sample; • F0 is UV405 of sample without peptide (negative control); • Ft is UV405 of the Triton-treated sample (positive control).

[6] = system: Pseudomonas syringae pv. tomato strain DC3000
[7] = system: Pseudomonas aeruginosa ATCC 9027; settings: ATCC 9027
[8] = system: Eco DH5α; test: MIC and MBC by serial dilution in 96-well plate; type: cell-based, Escherichia coli; settings: Table 7
How it was run: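 Log-phase bacteria in rich or minimal medium were adjusted to OD600=0.08, diluted 100-fold, and mixed 1:1 with 2-fold serial peptide dilutions (final 0–32 μg/mL). Plates were incubated at the optimal temperature without shaking. MBC is the lowest peptide concentration yielding no colonies.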

[9] = system: Ralstonia solanacearum strain Pss4; settings: Rs Pss4; optimal minimal medium, crude peptides (Table 9)
[10] = system: Xanthomonas euvesicatoria strain Xvt28; test: MIC and MBC by serial dilution in 96-well plate; type: cell-based; settings: Xev Xvt28; Table 7
Protocol: (§2) The effect of peptide length on the antimicrobial activity was investigated by deciding the minimal inhibitory concentration (MIC) and minimal bactericidal concentration (MBC) for each peptide against the pathogen with the media and growth conditions of phytopathogenic bacteria and E. coli as described in Table 1. Single bacterial colony grown on an optimal rich agar medium was picked, and each grew in 3 mL of the same rich liquid medium for 4 to 6 h.
(§3) For experiments carried out in the rich medium, the bacterial broth culture was then diluted in the same medium to give a final concentration of OD600=0.08, and then further diluted 100 folds in the same medium.
(§4) For experiments carried out in the minimal medium, the bacterial cells were collected from the bacterial liquid culture by centrifugation, re-suspended in an optimal minimal medium to give a final concentration of OD600=0.08, and then further diluted 100 folds in the same minimal medium.
(§5) Fifty microliters of serially diluted peptides (2-fold the final concentration) were added in a 96-well polystyrene plate with 50 μL of the bacterial culture. The final concentrations of peptides were 0, 2, 4, 8, 16 and 32 μg/mL. The plates were incubated at an optimal temperature without shaking.
(§6) MBC was determined as the lowest peptide concentration at which no colonies formed.

[11] = system: Xanthomonas campestris pv. campestris strain Xcc17; test: MIC and MBC by serial dilution in 96-well plate; type: cell-based; settings: Xcc Xcc17; Table 7
Protocol: as §2, §3, §4, §5, §6

[12] = system: Botrytis cinerea; type: cell-based; settings: Bc; optimal minimal medium, crude peptides (Table 9)
[13] = system: Ralstonia solanacearum strain Pss190; settings: Rs Pss190; optimal minimal medium, crude peptides (Table 9)

Substance: Ac-WKKLKKLLKKL-NH2 [pepD3]
- MBC [1]: 32 mg/L
- MIC [1]: 16 mg/L
- MIC [2]: 32.0 mg/L
- MBC/MFC ([2]; Ech, optimal minimal medium, crude peptides (Table 9)): — (“—” indicates no antimicrobial activity being detected at the highest peptide concentration (32 μg/mL) tested in this study.)
- MBC [3]: 14.3 mg/L
- MBC/MFC [3]: 13.3 mg/L
- MBC [4]: 32 mg/L
- MIC [4]: 16 mg/L
- hemolytic activity [5]: very little or non-hemolytic activity
- MBC [6]: 17.3 mg/L
- MIC [6]: 9.3 mg/L
- MBC [7]: 8 mg/L
- MIC [7]: 4 mg/L
- MBC [8]: 13.5 mg/L
- MIC [8]: 10.5 mg/L
- MBC/MFC [9]: — (“—” indicates no antimicrobial activity being detected at the highest peptide concentration (32 μg/mL) tested in this study.)
- MIC [9]: — (“—” indicates no antimicrobial activity being detected at the highest peptide concentration (32 μg/mL) tested in this study.)
- MBC [10]: 3.0 mg/L
- MIC [10]: 3.0 mg/L
- MBC [11]: 2.0 mg/L
- MIC [11]: 2.0 mg/L
- MBC/MFC [12]: — (“—” indicates no antimicrobial activity being detected at the highest peptide concentration (32 μg/mL) tested in this study.)
- MIC [12]: — (“—” indicates no antimicrobial activity being detected at the highest peptide concentration (32 μg/mL) tested in this study.)
- MBC/MFC [13]: — (“—” indicates no antimicrobial activity being detected at the highest peptide concentration (32 μg/mL) tested in this study.)
- MIC [13]: — (“—” indicates no antimicrobial activity being detected at the highest peptide concentration (32 μg/mL) tested in this study.)
